For 13 molecules, inhibition results are on record in US6133279A, “Therapeutic agents for renal diseases and organ preservatives” (Chugai Seiyaku Kabushiki Kaisha, priority 1996, dated 2000).

Like-named read-outs stand apart in the source and are kept apart here.

Assay [1] concerns porcine kidney-derived LLC-PK1 cells. Kind of assay: Protective effect against oxidized LDL-induced injury of porcine kidney-derived LLC-PK1 cells (2). Format: cell-based. The settings on record: Sus scrofa, LLC-PK1, 6 h, mean ± standard deviation, read-out: Cytoprotection rate (%). Here is the method:
For the purpose of evaluating in vitro cytoprotective effect of the compounds of the present invention, a cytoprotective study was performed using porcine kidney-derived LLC-PK1 cells (ATCC-CRL-13921) injured by oxidized low-density lipoprotein (oxidized LDL) in the same manner as in Test example 1 with the exception of some points.
Preparation of oxidized LDL and the conditions for cell culture and addition of test compounds were the same as in Test example 1. However, oxidized LDL was not diluted with saline and added to cells in an amount of 25 μl/well to a concentration of 91 μg/ml and the cells were cultured for 6 hours after addition of the oxidized LDL. Then, 150 μl/well of the culture medium were collected and measured for the lactate dehydrogenase (LDH) level (LD-L: SIGMA DIAGNOSTICS) having leaked in the medium.

Assay [2] concerns murine mesangial derived MES13 cells. Kind of assay: Protective effect against oxidized LDL-induced injury of murine mesangial cells (in vitro). Type of assay: cell-based. The settings on record: Mus musculus, MES13, 10 h, mean ± standard deviation, read-out: Cytoprotection rate (%). Here is the method: For the purpose of evaluating in vitro cytoprotective effect of the compounds of the present invention on mesangial cells, a cytoprotective study was performed using murine mesangial derived MES13 cells (ATCC-CRL-1927) injured by oxidized LDL.
Oxidized LDL was prepared in the same manner as in Test example 1. Cell culture was carried out by plating 2.5×10^4 cells/250 μl/well on a 48-well plate using FBS-free medium (mixture of DME medium and F12 medium in a ratio of 3:1). Test compounds were dissolved or suspended in ethanol and added to the wells in an amount of 1.25 μl/well to a concentration of 1 or 10 μM in each well. After 16 hours or immediately after the addition of the compounds, oxidized LDL was added to cells in an amount of 25 μl/well to a concentration of 91 μg/ml and the cells were cultured for 10 hours after addition of the oxidized LDL. Then, 150 μl/well of the culture medium were collected and measured for the lactate dehydrogenase level (LDL: SIGMA DIAGNOSTICS) having leaked in the medium.
The magnitude of cytoprotective effect was expressed as the cytoprotection rate which was determined by calculating the data assuming that the magnitude in wells containing oxidized LDL is 0% and that the magnitude in containing saline is 100%.

[3] abbreviates: compound added 16 hours before adding oxidized LDL.
The mark [4] stands for this setting: compound added immediately before adding oxidized LDL.

For `CC(C)(C)c1cc2c(c(C(C)(C)C)c1O)CC1(CCCCCCC1)O2` [Example 21, 4,6-Di-t-butyl-5-hydroxy-2,3-dihydrobenzofuran-2-spiro-1'-cyclooctane], the inhibition at 0.1 µM in assay [1] (setting [3]) came out at 15.6 ± 3.6%; in assay [1] (setting [4]), 2.5 ± 2.5%. The inhibition at 1 µM in assay [1] (setting [3]) is 13.7 ± 13.4%; in assay [1] (setting [4]) it was 6.1%; in assay [2] (setting [3]), -7.5 ± 4.2%; in assay [2] (setting [4]), -1.5 ± 1.2%. Also, the inhibition at 10 µM in assay [1] (setting [3]) was 16 ± 2.6%; in assay [1] (setting [4]), 14.4 ± 3.9%; in assay [2] (setting [3]), -7 ± 3.4%; in assay [2] (setting [4]), 11.9 ± 4.8%.
Take `CC1(CO)Cc2c(cc(C(C)(C)C)c(O)c2C(C)(C)C)S1` (stereo not shown) [Example 63, 4,6-Di-t-butyl-5-hydroxy-2-hydroxymethyl-2-methyl-2,3-dihydrobenzothiophene]: in assay [1] (setting [3]), the inhibition at 0.1 µM was 4.2 ± 4.4%, the inhibition at 1 µM came to 95.3 ± 3.6% and the inhibition at 10 µM was 100.2 ± 0.4%. In addition, in assay [1] (setting [4]), the inhibition at 0.1 µM came to 5.9 ± 1.7%, the inhibition at 1 µM worked out at 97.3% and the inhibition at 10 µM was determined as 101.1 ± 0.2%.
As for `CC(C)(C)c1cc2c(c(C(C)(C)C)c1O)CC1(CCSCC1)O2` [Example 68, 4,6-Di-t-butyl-5-hydroxy-2,3-dihydrobenzofuran-2-spiro-4'-tetrahydrothiopyran], in assay [1] (setting [3]), the inhibition at 0.1 µM came to 12 ± 3.6%, the inhibition at 1 µM is 56.2 ± 4.6% and the inhibition at 10 µM came to 102 ± 1.5%. In assay [1] (setting [4]), the inhibition at 0.1 µM turned out to be 6.3 ± 3.3%, the inhibition at 1 µM worked out at 85.8% and the inhibition at 10 µM amounted to 100.6 ± 0.2%.
For `CC(C)(C)c1cc2c(c(C(C)(C)C)c1O)CC1(CCOCC1)S2` [Example 69, 4,6-Di-t-butyl-5-hydroxy-2,3-dihydrobenzothiophene-2-spiro-4'-tetrahydropyran], the inhibition at 0.1 µM in assay [1] (setting [3]) worked out at 1 ± 4.7%; in assay [1] (setting [4]), 4.5 ± 2.1%. Besides, the inhibition at 1 µM was 24.6 ± 12.8% in assay [1] (setting [3]), 42.5% in assay [1] (setting [4]), 4.2 ± 6.3% in assay [2] (setting [3]) and 15.6 ± 4% in assay [2] (setting [4]). Also, the inhibition at 10 µM in assay [1] (setting [3]) is 100.4 ± 0.5%; in assay [1] (setting [4]), 101.6 ± 0.7%; in assay [2] (setting [3]), 54.8 ± 9.3%; in assay [2] (setting [4]), 89.8 ± 0.8%.
On to `CC1(CN)Cc2c(cc(C(C)(C)C)c(O)c2C(C)(C)C)O1` (stereo not shown) [Example 70, 2-Aminomethyl-4,6-di-t-butyl-5-hydroxy-2-methyl-2,3-dihydrobenzofuran], for which, in assay [1] (setting [3]), the inhibition at 0.1 µM is 17.5 ± 2.2%, the inhibition at 1 µM was found to be 101 ± 0.7% and the inhibition at 10 µM amounted to 100.7 ± 0.8%. In assay [1] (setting [4]), the inhibition at 0.1 µM worked out at 9.9 ± 2.4%, the inhibition at 1 µM is 101% and the inhibition at 10 µM was 101.3 ± 0.6%.
Regarding `CC1(CC#N)Cc2c(cc(C(C)(C)C)c(O)c2C(C)(C)C)O1` (stereo not shown) [Example 71, 4,6-Di-t-butyl-2-cyanomethyl-5-hydroxy-2-methyl-2,3-dihydrobenzofuran], in assay [1] (setting [3]), the inhibition at 0.1 µM turned out to be 10.4 ± 2.2%, the inhibition at 1 µM was 26.9 ± 2.5% and the inhibition at 10 µM came to 105.6 ± 0.6%. Moreover, in assay [1] (setting [4]), the inhibition at 0.1 µM worked out at 4.3 ± 4.1%, the inhibition at 1 µM was 80.2% and the inhibition at 10 µM was determined as 107 ± 2%.
Turning to `CC1(C(=O)O)Cc2c(cc(C(C)(C)C)c(O)c2C(C)(C)C)O1` (stereo not shown) [Example 72, 4,6-Di-t-butyl-5-hydroxy-2-methyl-2,3-dihydrobenzofuran-2-carboxylic acid], in assay [1] (setting [3]), the inhibition at 0.1 µM came to 2.3 ± 1.3%, the inhibition at 1 µM is 14.8 ± 2% and the inhibition at 10 µM worked out at 95.9 ± 1.3%. Further, in assay [1] (setting [4]), the inhibition at 0.1 µM was 2.7 ± 4.3%, the inhibition at 1 µM is 14% and the inhibition at 10 µM turned out to be 95.2 ± 0.9%.
Regarding `COC(=O)C1(C)Cc2c(cc(C(C)(C)C)c(O)c2C(C)(C)C)O1` (stereo not shown) [Example 73, 4,6-Di-t-butyl-5-hydroxy-2-methoxycarbonyl-2-methyl-2,3-dihydrobenzofuran], in assay [1] (setting [3]), the inhibition at 0.1 µM amounted to 5.7 ± 1.4%, the inhibition at 1 µM turned out to be 78.9 ± 16.9% and the inhibition at 10 µM is 99.7 ± 1.4%. For the same molecule, in assay [1] (setting [4]), the inhibition at 0.1 µM amounted to 4.8 ± 2.9%, the inhibition at 1 µM was 97.8% and the inhibition at 10 µM was found to be 99.4 ± 0.3%.
On to `CC1(C(=O)N2CCCC2)Cc2c(cc(C(C)(C)C)c(O)c2C(C)(C)C)O1` (stereo not shown) [Example 74, 1-(4,6-Di-t-butyl-5-hydroxy-2-methyl-2,3-dihydrobenzofuran-2-carbonyl)pyrrolidine], for which the inhibition at 0.1 µM in assay [1] (setting [3]) was found to be 25.2 ± 3.3%; in assay [1] (setting [4]) it was 10.1 ± 2.3%. For the same molecule, the inhibition at 1 µM in assay [1] (setting [3]) was 54.8 ± 3.8%; in assay [1] (setting [4]) it was 72.7%; in assay [2] (setting [3]) it was -10.2 ± 1.4%; in assay [2] (setting [4]), 18.7 ± 2.8%. The inhibition at 10 µM amounted to 103.6 ± 0.5% in assay [1] (setting [3]), 103.5 ± 0.6% in assay [1] (setting [4]), 24.5 ± 3.3% in assay [2] (setting [3]) and 73 ± 0.3% in assay [2] (setting [4]).
Turning to `CCOC(=O)/C=C/C1(C)Cc2c(cc(C(C)(C)C)c(O)c2C(C)(C)C)O1` (stereo not shown) [Example 75, Ethyl 3-(4,6-di-t-butyl-5-hydroxy-2-methyl-2,3-dihydrobenzofuran-2-yl)-2-propenoate], the results for the inhibition at 0.1 µM in assay [1] (setting [3]) and in assay [1] (setting [4]) were 4.9 ± 2.7% and -4.9 ± 1.8%, respectively. Further, the inhibition at 1 µM was 26.6 ± 7% in assay [1] (setting [3]), 51.8% in assay [1] (setting [4]), -8 ± 2% in assay [2] (setting [3]) and 32.3 ± 2.4% in assay [2] (setting [4]). Besides, the inhibition at 10 µM amounted to 99.8 ± 0.9% in assay [1] (setting [3]), 98.7 ± 0.4% in assay [1] (setting [4]), 64.5 ± 6.4% in assay [2] (setting [3]) and 79 ± 1.8% in assay [2] (setting [4]).
For `CCOC(=O)CCC1(C)Cc2c(cc(C(C)(C)C)c(O)c2C(C)(C)C)O1` (stereo not shown) [Example 76, Ethyl 3-(4,6-di-t-butyl-5-hydroxy-2-methyl-2,3-dihydrobenzofuran-2-yl)propanoate], the figures for the inhibition at 0.1 µM in assay [1] (setting [3]) and in assay [1] (setting [4]) were -10.4 ± 4.2% and -12.8 ± 1.2%, respectively. The inhibition at 1 µM was -2.8 ± 3.5% in assay [1] (setting [3]), -7.6% in assay [1] (setting [4]), -4.8 ± 4.1% in assay [2] (setting [3]) and 5.3 ± 3.9% in assay [2] (setting [4]). Moreover, the inhibition at 10 µM is 13.8 ± 4.2% in assay [1] (setting [3]), 58.8 ± 9.5% in assay [1] (setting [4]), -17.2 ± 0.9% in assay [2] (setting [3]) and 34.1 ± 2.5% in assay [2] (setting [4]).
For `CC1(C=CCCCC(=O)O)Cc2c(cc(C(C)(C)C)c(O)c2C(C)(C)C)O1` (stereo not shown) [Example 77, 6-(4,6-Di-t-butyl-5-hydroxy-2-methyl-2,3-dihydrobenzofuran-2-yl)-5-hexenoicacid], the inhibition at 0.1 µM in assay [1] (setting [3]) was 12.3 ± 2.7%; in assay [1] (setting [4]), 9.1 ± 1.8%. Further, the inhibition at 1 µM was 6.1 ± 1.5% in assay [1] (setting [3]), 10.6% in assay [1] (setting [4]), 8.4 ± 0.4% in assay [2] (setting [3]) and 8.7 ± 2.3% in assay [2] (setting [4]). For the same molecule, the inhibition at 10 µM was found to be 35.8 ± 4% in assay [1] (setting [3]), 48.5 ± 2.1% in assay [1] (setting [4]), 2.5 ± 2.8% in assay [2] (setting [3]) and 24.3 ± 1.7% in assay [2] (setting [4]).
As to `CC1(CCCCCC(=O)O)Cc2c(cc(C(C)(C)C)c(O)c2C(C)(C)C)O1` (stereo not shown) [Example 78, 6-(4,6-Di-t-butyl-5-hydroxy-2-methyl-2,3-dihydrobenzofuran-2-yl)hexanoic acid], the values for the inhibition at 0.1 µM in assay [1] (setting [3]) and in assay [1] (setting [4]) were -2.8 ± 0.9% and -11.6 ± 2.7%, respectively. In addition, the inhibition at 1 µM in assay [1] (setting [3]) was -10.7 ± 8.9%; in assay [1] (setting [4]), -6.7%; in assay [2] (setting [3]), 13.5 ± 5.6%; in assay [2] (setting [4]), 13.2 ± 1.4%. Also, the inhibition at 10 µM in assay [1] (setting [3]) amounted to 67.5 ± 6.1%; in assay [1] (setting [4]), 80.9 ± 1.5%; in assay [2] (setting [3]), 7.6 ± 2.1%; in assay [2] (setting [4]), 51.3 ± 2.7%.
